Laboratory results reported in ChEMBL document CHEMBL1201862, “PubChem BioAssay data set” (2004).
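Test compounds were applied to cells in 96-well plates for 48 hours at 5 doses. Here, GI50 denotes the concentration required for 50% inhibition of growth.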 Activity calls are given as the source filed them. No stated cut-off is given here; in the data, active = GI50 up to about 1.1 µM and inactive = higher.

Legend:
Assay in all cases: NCI tumour cell line growth inhibition, 48 h
786-0 = test system: 786-0
A498 = test system: A498
A549 = test system: A549
ACHN = test system: ACHN
CAKI-1 = test system: CAKI-1
CCRF-CEM = test system: CCRF-CEM
DLD-1 = test system: DLD-1
DMS-114 = test system: DMS-114
DMS-273 = test system: DMS-273
EKVX = test system: EKVX
HCC 2998 = test system: HCC 2998
HCT-116 = test system: HCT-116
HCT-15 = test system: HCT-15
HL-60 = test system: HL-60
HOP-62 = test system: HOP-62
HT-29 = test system: HT-29
IGROV-1 = test system: IGROV-1
K562 = test system: K562
KM-20L2 = test system: KM-20L2
KM12 = test system: KM12
LXFL 529 = test system: LXFL 529
M14 = test system: M14
M19-MEL = test system: M19-MEL
MOLT-4 = test system: MOLT-4
Malme-3M = test system: Malme-3M
NCI-H226 = test system: NCI-H226
NCI-H23 = test system: NCI-H23
NCI-H460 = test system: NCI-H460
OVCAR-3 = test system: OVCAR-3
OVCAR-4 = test system: OVCAR-4
OVCAR-5 = test system: OVCAR-5
OVCAR-8 = test system: OVCAR-8
RPMI-8226 = test system: RPMI-8226
RXF 393 = test system: RXF 393
RXF 631 = test system: RXF 631
SF-295 = test system: SF-295
SF-539 = test system: SF-539
SK-MEL-28 = test system: SK-MEL-28
SK-MEL-2 = test system: SK-MEL-2
SK-MEL-5 = test system: SK-MEL-5
SK-OV-3 = test system: SK-OV-3
SNB-75 = test system: SNB-75
SNB-78 = test system: SNB-78
SW-620 = test system: SW-620
TK-10 = test system: TK-10
U-251 = test system: U-251
UACC-257 = test system: UACC-257
UACC-62 = test system: UACC-62
UO-31 = test system: UO-31
XF498 = test system: XF498
COLO 205 = test system: COLO 205
HOP-18 = test system: HOP-18
HOP-92 = test system: HOP-92
LOX IMVI = test system: LOX IMVI
NCI-H522 = test system: NCI-H522
SF-268 = test system: SF-268
SN12C = test system: SN12C
SNB-19 = test system: SNB-19

CCOC(=O)C(C)(c1cn(C)c2ccccc12)c1cn(C)c2ccccc12 was tested, and the GI50 (786-0) was 69.2 µM (inactive), the GI50 (A498) was > 100 µM (inactive) and the GI50 (A549) was 81.5 µM (inactive). The GI50 (ACHN) was 77.1 µM (inactive), the GI50 (CAKI-1) was 41.6 µM (inactive) and the GI50 (CCRF-CEM) was > 100 µM (inactive). For the same molecule, the GI50 (DLD-1) was > 100 µM (inactive), the GI50 (DMS-114) was 79.6 µM (inactive) and the GI50 (DMS-273) was > 100 µM (inactive). The GI50 (EKVX) was > 100 µM (inactive), the GI50 (HCC 2998) was > 100 µM (inactive) and the GI50 (HCT-116) was 34.3 µM (inactive). For the same molecule, the GI50 (HCT-15) was greater than 100 µM, the GI50 (HL-60) was > 100 µM (inactive) and the GI50 (HOP-62) was 76.2 µM (inactive). The GI50 (HT-29) was > 100 µM (inactive), the GI50 (IGROV-1) was > 100 µM (inactive) and the GI50 (K562) was 66.2 µM (inactive). For the same molecule, the GI50 (KM-20L2) was > 100 µM (inactive), the GI50 (KM12) was > 100 µM (inactive) and the GI50 (LXFL 529) was > 100 µM (inactive). For the same molecule, the GI50 (M14) was > 100 µM (inactive), the GI50 (M19-MEL) was > 100 µM (inactive) and the GI50 (MOLT-4) was > 100 µM (inactive). For the same molecule, the GI50 (Malme-3M) was 67.3 µM (inactive), the GI50 (NCI-H226) was 30.6 µM (inactive) and the GI50 (NCI-H23) was 44.7 µM (inactive). The GI50 (NCI-H460) was > 100 µM (inactive), the GI50 (OVCAR-3) was 45.8 µM (inactive) and the GI50 (OVCAR-4) was 32.5 µM (inactive). The GI50 (OVCAR-5) was > 100 µM (inactive), the GI50 (OVCAR-8) was 52.2 µM (inactive) and the GI50 (RPMI-8226) was > 100 µM (inactive). The GI50 (RXF 393) was 44.5 µM (inactive), the GI50 (RXF 631) was 50.8 µM (inactive) and the GI50 (SF-295) was 24.5 µM (inactive). The GI50 (SF-539) was 49.7 µM (inactive), the GI50 (SK-MEL-28) was > 100 µM (inactive) and the GI50 (SK-MEL-2) was > 100 µM (inactive). The GI50 (SK-MEL-5) was > 100 µM (inactive), the GI50 (SK-OV-3) was > 100 µM (inactive) and the GI50 (SNB-75) was 19 µM (inactive). The GI50 (SNB-78) was 70 µM (inactive), the GI50 (SW-620) was > 100 µM (inactive) and the GI50 (TK-10) was 83.9 µM (inactive). The GI50 (U-251) was 57.5 µM (inactive), the GI50 (UACC-257) was > 100 µM (inactive) and the GI50 (UACC-62) was 87.9 µM (inactive). For the same molecule, the GI50 (UO-31) was > 100 µM (inactive) and the GI50 (XF498) was 32.3 µM (inactive).

In the case of Clc1ccc(CCc2ccncn2)c(Cl)c1, the GI50 (786-0) is reported as > 100 µM (inactive), the GI50 (A498) is reported as 86.5 µM (inactive) and the GI50 (A549) is reported as > 100 µM (inactive). The GI50 (ACHN) was > 100 µM (inactive), the GI50 (CAKI-1) was 50.2 µM (inactive) and the GI50 (COLO 205) was 64.9 µM (inactive). For the same molecule, the GI50 (DLD-1) was > 100 µM (inactive), the GI50 (DMS-114) was 30.1 µM (inactive) and the GI50 (DMS-273) was 97.5 µM (inactive). The GI50 (EKVX) was 9.68 µM (inactive), the GI50 (HCC 2998) was > 100 µM (inactive) and the GI50 (HCT-116) was 52.5 µM (inactive). For the same molecule, the GI50 (HCT-15) was 79.6 µM, the GI50 (HL-60) was 30.1 µM (inactive) and the GI50 (HOP-18) was 33.3 µM (inactive). For the same molecule, the GI50 (HOP-62) was > 100 µM (inactive), the GI50 (HOP-92) was 54.6 µM (inactive) and the GI50 (HT-29) was > 100 µM (inactive). The GI50 (IGROV-1) was > 100 µM (inactive), the GI50 (K562) was 63.8 µM (inactive) and the GI50 (KM-20L2) was 73.5 µM (inactive). For the same molecule, the GI50 (KM12) was 63 µM (inactive), the GI50 (LOX IMVI) was > 100 µM (inactive) and the GI50 (LXFL 529) was 36.3 µM (inactive). The GI50 (M14) was > 100 µM (inactive), the GI50 (M19-MEL) was 47.8 µM (inactive) and the GI50 (MOLT-4) was 29.3 µM (inactive). For the same molecule, the GI50 (Malme-3M) was 58.9 µM (inactive), the GI50 (NCI-H226) was 60.5 µM (inactive) and the GI50 (NCI-H23) was 49.3 µM (inactive). For the same molecule, the GI50 (NCI-H460) was > 100 µM (inactive), the GI50 (NCI-H522) was 37.7 µM (inactive) and the GI50 (OVCAR-3) was 39.5 µM (inactive). For the same molecule, the GI50 (OVCAR-4) was > 100 µM (inactive), the GI50 (OVCAR-5) was > 100 µM (inactive) and the GI50 (OVCAR-8) was 97.3 µM (inactive). For the same molecule, the GI50 (RPMI-8226) was 25.5 µM (inactive), the GI50 (RXF 393) was 27 µM (inactive) and the GI50 (RXF 631) was 60.1 µM (inactive). For the same molecule, the GI50 (SF-268) was 77.3 µM (inactive), the GI50 (SF-295) was 61.4 µM (inactive) and the GI50 (SF-539) was > 100 µM (inactive). The GI50 (SK-MEL-28) was > 100 µM (inactive), the GI50 (SK-MEL-2) was > 100 µM (inactive) and the GI50 (SK-MEL-5) was 19.5 µM (inactive). For the same molecule, the GI50 (SK-OV-3) was > 100 µM (inactive), the GI50 (SN12C) was > 100 µM (inactive) and the GI50 (SNB-19) was 35.6 µM (inactive). For the same molecule, the GI50 (SNB-75) was 68.5 µM (inactive), the GI50 (SNB-78) was 61.5 µM (inactive) and the GI50 (SW-620) was > 100 µM (inactive). For the same molecule, the GI50 (TK-10) was > 100 µM (inactive), the GI50 (U-251) was 41.5 µM (inactive) and the GI50 (UACC-257) was 38.1 µM (inactive). For the same molecule, the GI50 (UACC-62) was 53.2 µM (inactive) and the GI50 (UO-31) was 38.5 µM (inactive).
